According to patent US11873298B2, “Compounds and uses thereof” (JANSSEN PHARMACEUTICA NV, priority 2017, dated 2024):

How the values were obtained:
SCD1 = target: T1, SCD1 (Homo sapiens, UniProt O00767); test: Growth inhibition of humanized yeast strain expressing SCD1 as sole desaturase; format: cell-based; conditions: humanized yeast strain, 40 h
T1 construct: host or cells: S. cerevisiae ole1Δ strain (W303 pdr1Δ pdr3Δ background), plasmid pRS316 with TDH3 promoter and CYC1 terminator
T1 sequence (O00767 1-359): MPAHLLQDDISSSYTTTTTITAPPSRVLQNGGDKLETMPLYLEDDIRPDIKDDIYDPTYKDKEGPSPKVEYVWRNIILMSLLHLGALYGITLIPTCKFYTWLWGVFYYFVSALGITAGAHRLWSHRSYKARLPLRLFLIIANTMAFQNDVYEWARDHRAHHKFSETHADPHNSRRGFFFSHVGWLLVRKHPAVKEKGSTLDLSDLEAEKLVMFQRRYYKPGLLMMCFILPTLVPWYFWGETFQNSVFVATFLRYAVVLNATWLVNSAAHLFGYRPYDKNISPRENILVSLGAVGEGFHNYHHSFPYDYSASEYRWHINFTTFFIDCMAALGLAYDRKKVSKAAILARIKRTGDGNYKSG
How it was run: (§1)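 Measured by optical density at 600 nm, growth of desaturase-dependent yeast (OLE1 deleted; human SCD1, human SCD5 or yeast Ole1 supplied from plasmid) was scored after 24 h (Ole1) or 40 h (SCD1, SCD5) at 30° C. in galactose media lacking uracil with DMSO-delivered compound.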

SCD5 = target: T2, SCD5 (Homo sapiens, UniProt Q86SK9); test: Growth inhibition of humanized yeast strain expressing SCD5 as sole desaturase; format: cell-based; conditions: humanized yeast strain, 40 h
T2 construct: host or cells: S. cerevisiae ole1Δ strain (W303 pdr1Δ pdr3Δ background), plasmid pRS316 with TDH3 promoter and CYC1 terminator
T2 sequence (Q86SK9 1-330): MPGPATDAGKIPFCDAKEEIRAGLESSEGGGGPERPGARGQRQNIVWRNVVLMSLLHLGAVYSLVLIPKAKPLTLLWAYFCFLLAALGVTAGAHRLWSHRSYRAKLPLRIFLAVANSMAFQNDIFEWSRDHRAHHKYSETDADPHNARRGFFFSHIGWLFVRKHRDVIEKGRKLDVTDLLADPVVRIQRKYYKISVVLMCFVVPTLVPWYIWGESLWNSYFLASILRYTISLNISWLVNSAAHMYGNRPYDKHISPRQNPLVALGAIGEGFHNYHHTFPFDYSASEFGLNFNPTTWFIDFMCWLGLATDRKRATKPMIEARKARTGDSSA
How it was run: as §1

SMILES | IC50 (SCD1) [µM] | IC50 (SCD5) [µM]
COC(=O)N1CCC(c2cc(-c3cc4c(cn3)cnn4C(C)C)no2)CC1 [Compound 1088] | > 45 | 2.52
CCC(=O)N1CCC(c2cc(-c3cc4c(cn3)cnn4C(C)C)no2)CC1 [Compound 1089] | > 45 | 4.68
CC(C)C(=O)N1CCC(c2noc(-c3ccnc(C4CCOC4)c3)n2)CC1 (stereo not shown) [Compound 1090] | > 45 | 0.54
CC(N1CCC(c2nc(-c3ccc4cnn(C5COC5)c4c3)no2)CC1)C(F)(F)F (stereo not shown) [Compound 1091] | > 45 | 3.62
CC(C)(C)OC(=O)N1CCC(c2noc(-c3ccc4cnn([C@@H]5CCOC5)c4c3)n2)CC1 [Compound 1092] | 32.3 | 0.01
O=C(C1CCC1)N1CCC(c2noc(-c3ccc4cnn([C@@H]5CCOC5)c4c3)n2)CC1 [Compound 1093] | > 45 | 0.00253
COC(=O)N1CCC(c2noc(-c3ccc4cnn(C5COC(C)(C)C5)c4c3)n2)CC1 (stereo not shown) [Compound 1094] | > 45 | 17.4
COC(=O)N1CCC(c2noc(-c3ccc4cn(C5COC(C)(C)C5)nc4c3)n2)CC1 (stereo not shown) [Compound 1095] | > 45 | 11.1
O=C(N1CCC(c2noc(-c3ccc4cnn([C@@H]5CCOC5)c4c3)n2)CC1)C1(F)CC1 [Compound 1096] | > 45 | 0.00101
O=C(N1CCC(c2noc(-c3ccnc(C4CCOC4)c3)n2)CC1)C1(F)CCC1 (stereo not shown) [Compound 1097] | > 45 | 0.02
O=C(OC1CC1)N1CCC(c2noc(-c3ccnc(C4CCOC4)c3)n2)CC1 (stereo not shown) [Compound 1098] | > 45 | 0.062
O=C(c1ccccc1F)N1CCC(c2noc(-c3ccnc(C4CCOC4)c3)n2)CC1 (stereo not shown) [Compound 1099] | > 45 | 1.88
O=C(CC1CC1)N1CCC(c2noc(-c3ccnc(C4CCOC4)c3)n2)CC1 (stereo not shown) [Compound 1100] | > 45 | 0.738
COC(=O)N1CCC(c2noc(-c3ccc4cnn(C5CCN(C)C5=O)c4c3)n2)CC1 (stereo not shown) [Compound 1101] | 27.2 | 16.6
COC(=O)N1CCC(c2noc(-c3ccc4cn(C5CCN(C)C5=O)nc4c3)n2)CC1 (stereo not shown) [Compound 1102] | > 45 | > 45
O=C(C1CCC1)N1CCC(c2noc(-c3cccc(N4CCOCC4)n3)n2)CC1 [Compound 1103] | > 45 | 23.4
O=C(CC1CC1)N1CCC(c2noc(-c3ccc4cnn([C@@H]5CCOC5)c4c3)n2)CC1 [Compound 1104] | > 45 | 0.01
O=C(C1CCC1)N1CCC(c2noc(-c3ccnc(N4CCOCC4)c3)n2)CC1 [Compound 1105] | > 45 | 0.549
COC(=O)N1CCC(c2noc(-c3ccnc(N4CCOCC4)c3)n2)CC1 [Compound 1106] | > 45 | 2.96
CC(C)(C)OC(=O)N1CCC(c2cc(-c3cc4c(cn3)cnn4C3COC3)on2)CC1 [Compound 1107] | > 45 | 0.01

SMILES | IC50 (SCD1) [µM] | IC50 (SCD5) [µM]
CC(C)n1ncc2ccc(-c3noc(N4CCN5C(=O)N(C)CC5C4)n3)cc21 (stereo not shown) [Compound 1108] | > 45 | > 45
O=C(C1CCC1)N1CCC(c2cc(-c3cc4c(cn3)cnn4C3COC3)on2)CC1 [Compound 1109] | > 45 | 0.05
O=C(N1CCC(c2cc(-c3cc4c(cn3)cnn4C3COC3)on2)CC1)C1(F)CC1 [Compound 1110] | > 45 | 0.01
COC(=O)N1CCC(c2cc(-c3cc4c(cn3)cnn4C3COC3)on2)CC1 [Compound 1111] | > 45 | 0.179
CC(C)C(=O)N1CCC(c2noc(-c3ccc4cnn(C5COC5)c4c3F)n2)CC1 [Compound 1112] | > 45 | 0.193
CC(C)(C)OC(=O)N1CCC(c2noc(-c3ccc(=O)n(C4COC4)c3)n2)CC1 [Compound 1113] | > 45 | 0.494
CC(C)(C)OC(=O)N1CCC(c2noc(-c3ccc(=O)n(C4CCOC4)c3)n2)CC1 (stereo not shown) [Compound 1114] | > 45 | 0.116
O=C(C1CC1)N1CCC(c2noc(-c3ccnc(NC4COC4)c3)n2)CC1 [Compound 1115] | > 45 | 10.6
O=C(N1CCC(c2noc(-c3ccnc(NC4COC4)c3)n2)CC1)C1(F)CC1 [Compound 1116] | > 45 | 1.41
O=C(C1CC1)N1CCN(c2noc(-c3ccnc(NC4COC4)c3)n2)CC1 [Compound 1117] | > 45 | > 45
O=C(C1CC1)N1CCN(c2noc(-c3ccnc(Cl)c3)n2)CC1 [Compound 1118] | > 45 | > 45
CC(C)C(=O)N1CCN(c2noc(-c3ccnc(Cl)c3)n2)CC1 [Compound 1119] | > 45 | > 45
O=C(N1CCN(c2noc(-c3ccnc(Cl)c3)n2)CC1)C1(F)CC1 [Compound 1120] | > 45 | 32.8
CC(C)(C)OC(=O)N1CCC(c2noc(-c3ccn(C4COC4)c(=O)c3)n2)CC1 [Compound 1121] | > 45 | 15.5
O=C(N1CCC(c2noc(-c3ccnc(Cl)c3)n2)CC1)C1(F)CC1 [Compound 1122] | > 45 | 13.2
O=C(C1CC1)N1CCC(c2noc(-c3ccnc(Cl)c3)n2)CC1 [Compound 1123] | > 45 | 6.64
CC(C)C(=O)N1CCC(c2nc(-c3ccnc(F)c3)no2)CC1 [Compound 1124] | > 45 | > 45
CN(c1cc(-c2nc(C3CCN(C(=O)C4CC4)CC3)no2)ccn1)C1COC1 [Compound 1125] | > 45 | 0.523
CC(C)C(=O)N1CCC(c2noc(-c3ccc4oc(=O)n(C5COC5)c4c3)n2)CC1 [Compound 1126] | > 45 | 2.74
O=C(C1CCC1)N1CCC(c2noc(-c3ccc4oc(=O)n(C5COC5)c4c3)n2)CC1 [Compound 1127] | > 45 | 1.47

SMILES | IC50 (SCD1) [µM] | IC50 (SCD5) [µM]
O=C(C1CC1)N1CCC(c2nc(-c3ccnc(F)c3)no2)CC1 [Compound 1128] | > 45 | > 45
CC(C)C(=O)N1CCC(c2noc(-c3ccnc(Cl)c3)n2)CC1 [Compound 1129] | > 45 | > 45
CC1(OC(=O)N2CCC(c3noc(-c4ccnc(Cl)c4)n3)CC2)CC1 [Compound 1130] | > 45 | 9.9
O=C(N1CCC(c2noc(-c3ccc4oc(=O)n(C5COC5)c4c3)n2)CC1)C1(F)CC1 [Compound 1131] | > 45 | 0.207
O=C(c1ccccc1F)N1CCC(c2noc(-c3ccnc(Cl)c3)n2)CC1 [Compound 1132] | > 45 | > 45
CC(C)C(=O)N1CCN(c2noc(-c3ccnc(NC4COC4)c3)n2)CC1 [Compound 1133] | > 45 | > 45
CC(C)(C)OC(=O)N1CCC(/C(N)=N/OC(=O)c2ccc3cnn(C4COC4)c3c2)CC1 [Compound 1134] | > 45 | 0.0269
O=C(C1CC1)N1CCC(c2noc(-c3ccc4oc(=O)n(C5COC5)c4c3)n2)CC1 [Compound 1135] | > 45 | 0.188
CC1(OC(=O)N2CCC(c3noc(-c4ccnc([C@H]5CCOC5)c4)n3)CC2)CC1 [Compound 1136] | > 45 | 0.01
CC1(OC(=O)N2CCC(c3noc(-c4ccnc([C@@H]5CCOC5)c4)n3)CC2)CC1 [Compound 1137] | > 45 | 0.0522
CC(C)C(=O)N1CCC(c2noc(-c3cnc4cnn(C5COC5)c4c3)n2)CC1 [Compound 1138] | > 45 | 0.761
O=C(OC1CC1)N1CCC(c2noc(-c3cnc4cnn(C5COC5)c4c3)n2)CC1 [Compound 1139] | > 45 | 0.096
O=C(N1CCC(c2noc(-c3cnc4cnn(C5COC5)c4c3)n2)CC1)C1(F)CC1 [Compound 1140] | > 45 | 0.0613
O=C1CC(c2noc(-c3ccc4cnn(C5COC5)c4c3)n2)CCN1CC1CC1 (stereo not shown) [Compound 1141] | > 45 | 0.865
CN1CC2CN(c3nc(-c4ccc5cnn(C6COC6)c5c4)no3)CCN2C1=O (stereo not shown) [Compound 1142] | > 45 | > 45
CN1CC2CN(c3nc(-c4ccc5cn(C6COC6)nc5c4)no3)CCN2C1=O (stereo not shown) [Compound 1143] | > 45 | > 45
CC(C)(C)OC(=O)N1CCC(c2cc(-c3cc4c(cn3)cnn4C3COC3)no2)CC1 [Compound 1144] | 1.78 | 0.01
CC(C)(C)OC(=O)N1CCC(c2noc(-c3ccccc3N3CCOCC3)n2)CC1 [Compound 1145] | > 45 | 11.1
CC(C)n1ncc2ccc(-c3nc(C4CCN(CC5CC5)C(=O)C4)no3)cc21 (stereo not shown) [Compound 1146] | > 45 | 0.38
